{"source": "paper doi:10.1101/2024.08.13.607785v1", "about": "(biorxiv, 2024)", "assay_in_all_cases": "biochemical", "design_in_all_cases": "species or system human cell line lysate", "key": {"[1]": {"molecular_target": "Serine/threonine-protein kinase TAO3 ; TAOK3 ; Q9H2K8 (Homo sapiens, UniProt Q9H2K8)"}, "[2]": {"molecular_target": "Phosphatidylinositol 3-kinase catalytic subunit type 3 ; PIK3C3 ; Q8NEB9 (Homo sapiens, UniProt Q8NEB9)"}, "[3]": {"molecular_target": "Isoform 6 of Calcium/calmodulin-dependent protein kinase type II subun ; CAMK2G ; Q13555-6 (Homo sapiens, UniProt Q13555)"}, "[4]": {"molecular_target": "Serine/threonine-protein kinase 17B ; STK17B ; O94768 (Homo sapiens, UniProt O94768)", "sequence (O94768 whole entry, one chain of several)": "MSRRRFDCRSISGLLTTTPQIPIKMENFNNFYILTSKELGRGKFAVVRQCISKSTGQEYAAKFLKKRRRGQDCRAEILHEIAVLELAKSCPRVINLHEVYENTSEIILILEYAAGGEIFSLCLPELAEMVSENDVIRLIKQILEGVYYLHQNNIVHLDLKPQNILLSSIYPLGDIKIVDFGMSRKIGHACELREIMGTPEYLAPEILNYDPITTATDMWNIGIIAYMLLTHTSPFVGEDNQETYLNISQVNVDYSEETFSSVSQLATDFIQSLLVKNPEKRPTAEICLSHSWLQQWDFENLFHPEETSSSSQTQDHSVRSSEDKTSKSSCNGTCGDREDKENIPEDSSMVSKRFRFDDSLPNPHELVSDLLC"}, "[5]": {"molecular_target": "Protein-tyrosine kinase 2-beta ; PTK2B ; Q14289 (Homo sapiens, UniProt Q14289)"}, "[6]": {"molecular_target": "Casein kinase II subunit alpha' ; CSNK2A2 ; P19784 (Homo sapiens, UniProt P19784)", "sequence (P19784 whole entry, one chain of several)": "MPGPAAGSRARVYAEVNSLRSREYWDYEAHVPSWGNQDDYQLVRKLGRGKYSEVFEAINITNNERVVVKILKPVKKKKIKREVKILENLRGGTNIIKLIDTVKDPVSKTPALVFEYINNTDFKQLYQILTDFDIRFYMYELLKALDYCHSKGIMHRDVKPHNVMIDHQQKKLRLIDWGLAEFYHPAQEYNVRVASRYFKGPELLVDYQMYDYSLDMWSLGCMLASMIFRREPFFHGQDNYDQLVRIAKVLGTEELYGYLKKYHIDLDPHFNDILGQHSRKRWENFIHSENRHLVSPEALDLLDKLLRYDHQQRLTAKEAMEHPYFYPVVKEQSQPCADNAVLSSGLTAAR"}, "[7]": {"molecular_target": "MAP/microtubule affinity-regulating kinase 4 ; MARK4 ; Q96L34 (Homo sapiens, UniProt Q96L34)"}, "[8]": {"molecular_target": "Mitogen-activated protein kinase 1 ; MAPK1 ; P28482 (Homo sapiens, UniProt P28482)", "sequence (P28482 whole entry)": "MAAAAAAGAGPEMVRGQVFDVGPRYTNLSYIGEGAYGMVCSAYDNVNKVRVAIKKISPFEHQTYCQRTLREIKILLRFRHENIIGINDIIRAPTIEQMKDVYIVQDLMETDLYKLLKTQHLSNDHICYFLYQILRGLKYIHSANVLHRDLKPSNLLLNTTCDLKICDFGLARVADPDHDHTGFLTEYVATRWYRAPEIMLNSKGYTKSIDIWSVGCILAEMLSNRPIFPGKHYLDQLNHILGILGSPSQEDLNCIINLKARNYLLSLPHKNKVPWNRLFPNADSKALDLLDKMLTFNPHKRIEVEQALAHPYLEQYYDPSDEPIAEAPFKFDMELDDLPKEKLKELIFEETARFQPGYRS"}, "[9]": {"molecular_target": "AP2-associated protein kinase 1 ; AAK1 ; Q2M2I8 (Homo sapiens, UniProt Q2M2I8)", "sequence (Q2M2I8 whole entry)": "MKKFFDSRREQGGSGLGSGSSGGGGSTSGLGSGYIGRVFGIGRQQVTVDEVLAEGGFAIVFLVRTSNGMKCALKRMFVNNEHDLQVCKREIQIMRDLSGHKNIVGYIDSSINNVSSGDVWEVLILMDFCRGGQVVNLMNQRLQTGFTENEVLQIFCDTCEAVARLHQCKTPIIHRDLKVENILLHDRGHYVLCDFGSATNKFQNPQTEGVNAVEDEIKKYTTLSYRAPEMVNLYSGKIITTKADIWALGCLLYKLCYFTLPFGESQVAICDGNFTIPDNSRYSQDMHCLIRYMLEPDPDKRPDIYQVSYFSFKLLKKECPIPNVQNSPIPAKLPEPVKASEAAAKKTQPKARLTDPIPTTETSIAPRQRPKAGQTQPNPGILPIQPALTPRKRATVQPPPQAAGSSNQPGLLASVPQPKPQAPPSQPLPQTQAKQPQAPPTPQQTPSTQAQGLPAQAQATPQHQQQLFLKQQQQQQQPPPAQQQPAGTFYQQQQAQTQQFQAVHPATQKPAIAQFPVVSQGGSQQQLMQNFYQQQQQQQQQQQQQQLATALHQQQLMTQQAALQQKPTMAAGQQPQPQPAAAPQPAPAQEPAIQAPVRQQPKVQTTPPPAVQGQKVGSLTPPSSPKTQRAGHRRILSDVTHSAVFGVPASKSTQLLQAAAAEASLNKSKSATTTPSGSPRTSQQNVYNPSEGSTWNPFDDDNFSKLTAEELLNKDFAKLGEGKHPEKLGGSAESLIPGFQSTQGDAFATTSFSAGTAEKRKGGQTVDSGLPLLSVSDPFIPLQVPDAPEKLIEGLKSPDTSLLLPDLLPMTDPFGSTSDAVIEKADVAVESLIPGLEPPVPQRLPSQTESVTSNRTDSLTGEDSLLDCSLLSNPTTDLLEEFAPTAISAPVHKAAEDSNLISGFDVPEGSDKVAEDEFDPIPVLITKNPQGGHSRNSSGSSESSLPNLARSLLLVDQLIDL"}, "[10]": {"molecular_target": "Calcium/calmodulin-dependent protein kinase type II subunit beta ; CAMK2B ; Q13554 (Homo sapiens, UniProt Q13554)", "sequence (Q13554 whole entry, one chain of several)": "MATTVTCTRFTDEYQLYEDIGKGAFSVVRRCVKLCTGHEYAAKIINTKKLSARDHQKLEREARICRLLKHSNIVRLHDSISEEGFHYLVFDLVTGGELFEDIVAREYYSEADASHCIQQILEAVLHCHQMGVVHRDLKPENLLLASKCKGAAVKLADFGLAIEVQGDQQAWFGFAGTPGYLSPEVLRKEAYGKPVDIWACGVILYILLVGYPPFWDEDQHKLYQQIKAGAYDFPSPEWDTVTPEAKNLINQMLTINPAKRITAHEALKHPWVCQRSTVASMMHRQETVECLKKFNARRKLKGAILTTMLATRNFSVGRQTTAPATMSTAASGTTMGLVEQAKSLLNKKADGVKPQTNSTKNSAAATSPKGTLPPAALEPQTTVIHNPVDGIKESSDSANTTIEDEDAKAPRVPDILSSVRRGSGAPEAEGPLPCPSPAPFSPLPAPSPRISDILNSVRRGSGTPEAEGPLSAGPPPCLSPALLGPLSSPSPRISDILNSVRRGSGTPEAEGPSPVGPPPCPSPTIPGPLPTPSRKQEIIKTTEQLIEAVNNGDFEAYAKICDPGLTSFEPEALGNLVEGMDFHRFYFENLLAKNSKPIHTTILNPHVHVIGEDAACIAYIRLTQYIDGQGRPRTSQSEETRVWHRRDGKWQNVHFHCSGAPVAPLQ"}, "[11]": {"molecular_target": "Mitogen-activated protein kinase kinase kinase kinase 1 ; MAP4K1 ; Q92918 (Homo sapiens, UniProt Q92918)"}, "[12]": {"molecular_target": "TGF-beta receptor type-1 ; TGFBR1 ; P36897 (Homo sapiens, UniProt P36897)", "sequence (P36897 whole entry)": "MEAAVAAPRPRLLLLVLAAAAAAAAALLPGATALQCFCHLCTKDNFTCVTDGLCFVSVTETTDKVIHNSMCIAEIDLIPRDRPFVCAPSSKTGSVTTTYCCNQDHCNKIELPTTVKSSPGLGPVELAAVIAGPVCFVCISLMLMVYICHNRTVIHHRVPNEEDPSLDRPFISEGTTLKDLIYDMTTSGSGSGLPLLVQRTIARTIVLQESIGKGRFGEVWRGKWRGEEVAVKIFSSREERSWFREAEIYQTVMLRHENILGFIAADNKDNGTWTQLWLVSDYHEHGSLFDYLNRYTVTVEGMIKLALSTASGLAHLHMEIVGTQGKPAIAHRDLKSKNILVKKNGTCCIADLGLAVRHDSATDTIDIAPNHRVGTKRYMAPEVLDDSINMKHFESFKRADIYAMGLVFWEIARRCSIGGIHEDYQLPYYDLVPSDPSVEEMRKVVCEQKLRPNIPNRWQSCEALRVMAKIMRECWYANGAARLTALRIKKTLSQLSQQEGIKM"}, "[13]": {"molecular_target": "Serine/threonine-protein kinase/endoribonuclease IRE1 ; ERN1 ; O75460 (Homo sapiens, UniProt O75460)", "sequence (O75460 whole entry, one chain of several)": "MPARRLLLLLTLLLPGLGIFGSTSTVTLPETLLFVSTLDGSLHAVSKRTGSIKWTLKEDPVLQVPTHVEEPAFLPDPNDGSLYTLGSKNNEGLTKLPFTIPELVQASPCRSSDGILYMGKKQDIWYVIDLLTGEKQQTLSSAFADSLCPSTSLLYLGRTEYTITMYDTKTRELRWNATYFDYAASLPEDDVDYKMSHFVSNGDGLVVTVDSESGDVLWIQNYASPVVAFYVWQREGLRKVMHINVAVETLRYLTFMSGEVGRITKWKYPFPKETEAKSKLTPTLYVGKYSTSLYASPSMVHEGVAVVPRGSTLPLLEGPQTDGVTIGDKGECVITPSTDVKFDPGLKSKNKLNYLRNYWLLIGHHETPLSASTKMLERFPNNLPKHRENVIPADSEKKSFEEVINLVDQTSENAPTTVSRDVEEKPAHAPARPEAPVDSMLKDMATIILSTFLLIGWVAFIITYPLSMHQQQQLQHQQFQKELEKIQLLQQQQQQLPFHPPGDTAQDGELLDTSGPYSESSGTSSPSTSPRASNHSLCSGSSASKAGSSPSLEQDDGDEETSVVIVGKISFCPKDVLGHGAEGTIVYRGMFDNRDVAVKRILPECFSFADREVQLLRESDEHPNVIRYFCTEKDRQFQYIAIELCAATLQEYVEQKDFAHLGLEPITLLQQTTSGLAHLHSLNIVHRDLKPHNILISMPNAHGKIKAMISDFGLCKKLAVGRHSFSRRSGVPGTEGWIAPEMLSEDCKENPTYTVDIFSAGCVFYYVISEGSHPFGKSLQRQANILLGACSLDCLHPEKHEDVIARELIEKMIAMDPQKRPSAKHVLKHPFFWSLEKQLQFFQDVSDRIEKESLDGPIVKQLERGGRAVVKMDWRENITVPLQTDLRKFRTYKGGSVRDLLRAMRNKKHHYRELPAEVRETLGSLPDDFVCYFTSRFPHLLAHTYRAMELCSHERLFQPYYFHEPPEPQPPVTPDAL"}, "[14]": {"molecular_target": "Serine/threonine-protein kinase TBK1 ; TBK1 ; Q9UHD2 (Homo sapiens, UniProt Q9UHD2)"}, "[15]": {"molecular_target": "Dual specificity tyrosine-phosphorylation-regulated kinase 1A ; DYRK1A ; Q13627 (Homo sapiens, UniProt Q13627)"}, "[16]": {"molecular_target": "Phosphatidylinositol 4,5-bisphosphate 3-kinase catalytic subunit delta ; PIK3CD ; O00329 (Homo sapiens, UniProt O00329)"}, "[17]": {"molecular_target": "Protein kinase C delta type ; PRKCD ; Q05655 (Homo sapiens, UniProt Q05655)"}, "[18]": {"molecular_target": "Isoform 3 of Serine/threonine-protein kinase MARK1 ; MARK1 ; Q9P0L2-3 (Homo sapiens, UniProt Q9P0L2)"}, "[19]": {"molecular_target": "Phosphatidylinositol 4-phosphate 3-kinase C2 domain-containing subunit ; PIK3C2B ; O00750 (Homo sapiens, UniProt O00750)"}, "[20]": {"molecular_target": "Mitogen-activated protein kinase kinase kinase 15 ; MAP3K15 ; Q6ZN16 (Homo sapiens, UniProt Q6ZN16)"}, "[21]": {"molecular_target": "Serine/threonine-protein kinase ATR ; ATR ; Q13535 (Homo sapiens, UniProt Q13535)"}, "[22]": {"molecular_target": "Dual specificity protein kinase TTK ; TTK ; P33981 (Homo sapiens, UniProt P33981)", "sequence (P33981 whole entry)": "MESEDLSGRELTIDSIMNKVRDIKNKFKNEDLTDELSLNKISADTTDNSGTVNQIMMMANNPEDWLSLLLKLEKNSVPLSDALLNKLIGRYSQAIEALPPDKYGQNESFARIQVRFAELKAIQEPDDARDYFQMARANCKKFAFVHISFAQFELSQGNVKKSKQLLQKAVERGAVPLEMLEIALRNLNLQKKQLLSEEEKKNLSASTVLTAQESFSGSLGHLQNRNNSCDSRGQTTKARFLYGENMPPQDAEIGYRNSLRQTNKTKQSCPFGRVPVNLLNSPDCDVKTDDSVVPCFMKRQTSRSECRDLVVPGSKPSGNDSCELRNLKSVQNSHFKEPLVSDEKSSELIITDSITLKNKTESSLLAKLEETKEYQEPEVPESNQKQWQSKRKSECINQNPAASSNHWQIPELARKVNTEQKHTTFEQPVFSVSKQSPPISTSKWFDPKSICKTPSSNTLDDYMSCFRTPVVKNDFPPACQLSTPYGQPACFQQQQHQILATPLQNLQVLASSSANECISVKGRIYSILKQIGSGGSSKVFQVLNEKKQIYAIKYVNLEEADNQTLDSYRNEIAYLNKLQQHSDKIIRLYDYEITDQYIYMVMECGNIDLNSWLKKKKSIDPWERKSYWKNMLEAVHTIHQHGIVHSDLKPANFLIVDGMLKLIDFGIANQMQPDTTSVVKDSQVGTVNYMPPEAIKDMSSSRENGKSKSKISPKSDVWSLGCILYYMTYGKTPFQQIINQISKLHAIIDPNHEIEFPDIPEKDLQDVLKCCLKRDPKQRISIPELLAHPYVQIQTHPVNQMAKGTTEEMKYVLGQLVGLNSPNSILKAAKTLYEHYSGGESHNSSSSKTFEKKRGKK"}, "[23]": {"molecular_target": "Protein kinase C iota type ; PRKCI ; P41743 (Homo sapiens, UniProt P41743)"}, "[24]": {"details": "read-out: BAY-1143572 (10 µM) / %Intensity relative to DMSO"}, "[25]": {"details": "read-out: BAY-1251152 (10 µM) / %Intensity relative to DMSO"}}, "note": "Read-outs that look alike come from different tables or passages of the source.", "data": [{"smiles": "COc1cc(F)ccc1-c1ncnc(Nc2cccc(C[S@](C)(=N)=O)c2)n1", "note": "[BAY-1143572]", "values": [{"measurement": "remaining activity at 10 µM", "setting": "[1]; [24]", "result": 111, "unit": "%"}, {"measurement": "remaining activity at 10 µM", "setting": "[2]; [24]", "result": 119, "unit": "%"}, {"measurement": "remaining activity at 10 µM", "setting": "[3]; [24]", "result": 105, "unit": "%"}, {"measurement": "remaining activity at 10 µM", "setting": "[4]; [24]", "result": 90.7, "unit": "%"}, {"measurement": "remaining activity at 10 µM", "setting": "[5]; [24]", "result": 217, "unit": "%"}, {"measurement": "remaining activity at 10 µM", "setting": "[6]; [24]", "result": 114, "unit": "%"}, {"measurement": "remaining activity at 10 µM", "setting": "[7]; [24]", "result": 110, "unit": "%"}, {"measurement": "remaining activity at 10 µM", "setting": "[8]; [24]", "result": 112, "unit": "%"}, {"measurement": "remaining activity at 10 µM", "setting": "[9]; [24]", "result": 80.2, "unit": "%"}, {"measurement": "remaining activity at 10 µM", "setting": "[10]; [24]", "result": 105, "unit": "%"}, {"measurement": "remaining activity at 10 µM", "setting": "[11]; [24]", "result": 101, "unit": "%"}, {"measurement": "remaining activity at 10 µM", "setting": "[12]; [24]", "result": 115, "unit": "%"}, {"measurement": "remaining activity at 10 µM", "setting": "[13]; [24]", "result": 133, "unit": "%"}, {"measurement": "remaining activity at 10 µM", "setting": "[14]; [24]", "result": 94.7, "unit": "%"}, {"measurement": "remaining activity at 10 µM", "setting": "[15]; [24]", "result": 76.3, "unit": "%"}, {"measurement": "remaining activity at 10 µM", "setting": "[16]; [24]", "result": 116, "unit": "%"}, {"measurement": "remaining activity at 10 µM", "setting": "[17]; [24]", "result": 97.1, "unit": "%"}, {"measurement": "remaining activity at 10 µM", "setting": "[18]; [24]", "result": 80.9, "unit": "%"}, {"measurement": "remaining activity at 10 µM", "setting": "[19]; [24]", "result": 79.7, "unit": "%"}, {"measurement": "remaining activity at 10 µM", "setting": "[20]; [24]", "result": 91.7, "unit": "%"}, {"measurement": "remaining activity at 10 µM", "setting": "[21]; [24]", "result": 109, "unit": "%"}, {"measurement": "remaining activity at 10 µM", "setting": "[22]; [24]", "result": 86.7, "unit": "%"}, {"measurement": "remaining activity at 10 µM", "setting": "[23]; [24]", "result": 108, "unit": "%"}]}, {"smiles": "COc1cc(F)ccc1-c1cc(Nc2cc(CS(C)(=N)=O)ccn2)ncc1F", "note": "(stereo not shown) [BAY-1251152]", "values": [{"measurement": "remaining activity at 10 µM", "setting": "[1]; [25]", "result": 84, "unit": "%"}, {"measurement": "remaining activity at 10 µM", "setting": "[2]; [25]", "result": 124, "unit": "%"}, {"measurement": "remaining activity at 10 µM", "setting": "[3]; [25]", "result": 94.9, "unit": "%"}, {"measurement": "remaining activity at 10 µM", "setting": "[4]; [25]", "result": 108, "unit": "%"}, {"measurement": "remaining activity at 10 µM", "setting": "[5]; [25]", "result": 176, "unit": "%"}, {"measurement": "remaining activity at 10 µM", "setting": "[6]; [25]", "result": 98.2, "unit": "%"}, {"measurement": "remaining activity at 10 µM", "setting": "[7]; [25]", "result": 105, "unit": "%"}, {"measurement": "remaining activity at 10 µM", "setting": "[8]; [25]", "result": 105, "unit": "%"}, {"measurement": "remaining activity at 10 µM", "setting": "[9]; [25]", "result": 87.9, "unit": "%"}, {"measurement": "remaining activity at 10 µM", "setting": "[10]; [25]", "result": 98.2, "unit": "%"}, {"measurement": "remaining activity at 10 µM", "setting": "[11]; [25]", "result": 71.6, "unit": "%"}, {"measurement": "remaining activity at 10 µM", "setting": "[12]; [25]", "result": 114, "unit": "%"}, {"measurement": "remaining activity at 10 µM", "setting": "[13]; [25]", "result": 131, "unit": "%"}, {"measurement": "remaining activity at 10 µM", "setting": "[14]; [25]", "result": 94, "unit": "%"}, {"measurement": "remaining activity at 10 µM", "setting": "[15]; [25]", "result": 60.2, "unit": "%"}, {"measurement": "remaining activity at 10 µM", "setting": "[16]; [25]", "result": 113, "unit": "%"}, {"measurement": "remaining activity at 10 µM", "setting": "[17]; [25]", "result": 97.3, "unit": "%"}, {"measurement": "remaining activity at 10 µM", "setting": "[18]; [25]", "result": 84.7, "unit": "%"}, {"measurement": "remaining activity at 10 µM", "setting": "[19]; [25]", "result": 84.6, "unit": "%"}, {"measurement": "remaining activity at 10 µM", "setting": "[20]; [25]", "result": 95, "unit": "%"}, {"measurement": "remaining activity at 10 µM", "setting": "[21]; [25]", "result": 70.1, "unit": "%"}, {"measurement": "remaining activity at 10 µM", "setting": "[22]; [25]", "result": 82.1, "unit": "%"}, {"measurement": "remaining activity at 10 µM", "setting": "[23]; [25]", "result": 99.3, "unit": "%"}]}]}
